Among the data in patent US9670210B2, “Cyclopropylamines as LSD1 inhibitors” (Incyte Corporation, priority 2014, dated 2017) are IC50 values, retold here.

The assay deals with LSD-1 enzyme (Homo sapiens (Human), UniProt O60341).
Method: LSD1 Histone Demethylase Biochemical Assay
LANCE LSD1/KDM1A demethylase assay-10 μL of 1 nM LSD-1 enzyme (ENZO BML-SE544-0050) in the assay buffer (50 mM Tris, pH 7.5, 0.01% Tween-20, 25 mM NaCl, 5 mM DTT) were preincubated for 1 hour at 25° C. with 0.8 μL compound/DMSO dotted in black 384 well polystyrene plates. […] After stopping the reactions plates were incubated for 30 minutes and read on a PHERAstar FS plate reader (BMG Labtech).
In general, IC50 refers to the concentration that inhibits the measured activity by half. `COCCn1cc(C(=O)N2CCC(CN[C@@H]3C[C@H]3c3ccccc3)(COC)CC2)cn1` [Example 104, (1R,2S)—N-{[1-{[1-(2-methoxyethyl)-1H-pyrazol-4-yl]carbonyl}-4-(methoxymethyl)piperidin-4-yl]methyl}-2-phenylcyclopropanamine] returned a half-inhibitory concentration (IC50) of under 100 nM.

`COCC1(CN[C@@H]2C[C@H]2c2ccccc2)CCN(C(=O)c2cnn(C)c2)CC1` [Example 105, (1R,2S)—N-({4-(methoxymethyl)-1-[(1-methyl-1H-pyrazol-4-yl)carbonyl]piperidin-4-yl}methyl)-2-phenylcyclopropanamine] showed an IC50 of under 100 nM.

The compound `COc1ccccc1NC(=O)N1CC(CN[C@@H]2C[C@H]2c2ccccc2)C1` (relative stereo) [Example 24, N-(2-Methoxyphenyl)-3-{[(trans-2-phenylcyclopropyl)amino]methyl}azetidine-1-carboxamide] gave an IC50 of under 100 nM.

As for `N#Cc1ccccc1OCC1(CN[C@@H]2C[C@H]2c2ccccc2)CCN(CC2(C(=O)O)CCC2)CC1` [Example 83, 1-{[4-[(2-cyanophenoxy)methyl]-4-({[(1R,2S)-2-phenylcyclopropyl]amino}methyl)piperidin-1-yl]methyl}cyclobutanecarboxylic acid], the IC50 is under 100 nM.

On to `COCC1(CN[C@@H]2C[C@H]2c2ccccc2)CCN(C(=O)C2(C#N)CC2)CC1` [Example 102, 1-{[4-(methoxymethyl)-4-({[(1R,2S)-2-phenylcyclopropyl]amino}methyl)piperidin-1-yl]carbonyl}cyclopropanecarbonitrile], for which the IC50 was under 100 nM.

Compound `O=C(N1CC(CNC2CC2c2ccccc2)C1)N1CCC[C@]2(CCN(C3CCC(O)CC3)C2=O)C1` (stereo partly drawn) [Example 11, (5S)-2-(cis-4-Hydroxycyclohexyl)-7-[(3-{[(trans-2-phenylcyclopropyl)amino]methyl}azetidin-1-yl)carbonyl]-2,7-diazaspiro[4.5]decan-1-one] yielded an IC50 of under 100 nM.

In turn, `COCC1(CN[C@@H]2C[C@H]2c2ccccc2)CCN(C(=O)c2cnn(CCO)c2)CC1` [Example 103, 2-(4-{[4-(methoxymethyl)-4-({[(1R,2S)-2-phenylcyclopropyl]amino}methyl)piperidin-1-yl]carbonyl}-1H-pyrazol-1-yl)ethanol] returned an IC50 of under 100 nM.

Take `CCOCC1(CN[C@@H]2C[C@H]2c2ccccc2)CCN(CC2(C(=O)O)CC2)CC1` [Example 70, 1-{[4-(ethoxymethyl)-4-({[(1R,2S)-2-phenylcyclopropyl]amino}methyl)piperidin-1-yl]methyl}cyclopropanecarboxylic acid]: the IC50 was under 100 nM.

Consider `O=C(O)C1(CN2CCC(CN[C@@H]3C[C@H]3c3ccccc3)(COc3cccc(F)c3)CC2)CCC1` [Example 78, 1-{[4-[(3-fluorophenoxy)methyl]-4-({[(1R,2S)-2-phenylcyclopropyl]amino}methyl)piperidin-1-yl]methyl}cyclobutanecarboxylic acid], for which the half-maximal inhibitory concentration (IC50) is under 100 nM.

On to `N[C@H]1CC[C@H](C(=O)N2CCC(CN[C@@H]3C[C@H]3c3ccccc3)(Cc3ccc(F)cc3)CC2)CC1` [Example 33, trans-4-{[4-(4-fluorobenzyl)-4-({[(1R,2S)-2-phenylcyclopropyl]amino}methyl)piperidin-1-yl]carbonyl}cyclohexanamine], for which the IC50 was under 100 nM.

The compound `COCC1(CN[C@@H]2C[C@H]2c2ccccc2)CCN(C(=O)N2CCN(C)CC2)CC1` [Example 43, (1R,2S)—N-({4-(methoxymethyl)-1-[(4-methylpiperazin-1-yl)carbonyl]piperidin-4-yl}methyl)-2-phenylcyclopropanamine] yielded an IC50 of under 100 nM.

The compound `N#Cc1cccc(CC2(CN[C@@H]3C[C@H]3c3ccccc3)CCN(C[C@H]3CC[C@H](C(=O)O)CC3)CC2)c1` [Example 58, trans-4-{[4-(3-cyanobenzyl)-4-({[(1R,2S)-2-phenylcyclopropyl]amino}methyl)piperidin-1-yl]methyl}cyclohexanecarboxylic acid] came in with a half-inhibitory concentration (IC50) of under 100 nM.

`CC1(CN[C@@H]2C[C@H]2c2ccccc2)CCN(CC2(C(=O)O)CCC2)CC1` [Example 45, 1-{[4-methyl-4-({[(1R,2S)-2-phenylcyclopropyl]amino}methyl)piperidin-1-yl]methyl}cyclobutanecarboxylic acid]: the IC50 is under 100 nM.

Compound `O=C(Nc1cccc(F)c1)N1CC(CN[C@@H]2C[C@H]2c2ccccc2)C1` (relative stereo) [Example 20, N-(3-Fluorophenyl)-3-{[(trans-2-phenylcyclopropyl)amino]methyl}azetidine-1-carboxamide] registered an IC50 of under 100 nM.

Consider `COCC1(CN[C@@H]2C[C@H]2c2ccccc2)CCN(C(=O)c2cnn(CCC#N)c2)CC1` [Example 106, 3-(4-{[4-(methoxymethyl)-4-({[(1R,2S)-2-phenylcyclopropyl]amino}methyl)piperidin-1-yl]carbonyl}-1H-pyrazol-1-yl)propanenitrile], for which the IC50 is under 100 nM.

Compound `O=C(O)C1(CN2CCC(CN[C@@H]3C[C@H]3c3ccccc3)(Cc3ccc(F)cn3)CC2)CC1` [Example 96, 1-{[4-[(5-fluoropyridin-2-yl)methyl]-4-({[(1R,2S)-2-phenylcyclopropyl]amino}methyl)piperidin-1-yl]methyl}cyclopropanecarboxylic acid] had an IC50 of under 100 nM.

In turn, `COCC1(CNC2CC2c2ccc(OC)cc2)CCN(CC2(C(=O)O)CCC2)CC1` (stereo not shown) [Example 67, 1-{[4-(methoxymethyl)-4-({[2-(4-methoxyphenyl)cyclopropyl]amino}methyl)piperidin-1-yl]methyl}cyclobutanecarboxylic acid] returned a concentration for half-maximal inhibition (IC50) of under 100 nM.

Regarding `CNC(=O)c1ccc(OCC2(CN[C@@H]3C[C@H]3c3ccccc3)CCN(CC3(C(=O)O)CC3)CC2)cn1` [Example 90, 1-{[4-[({6-[(methylamino)carbonyl]pyridin-3-yl}oxy)methyl]-4-({[(1R,2S)-2-phenylcyclopropyl]amino}methyl)piperidin-1-yl]methyl}cyclopropanecarboxylic acid], the concentration for half-maximal inhibition (IC50) was under 100 nM.

For the compound `COCC1(CN[C@@H]2C[C@H]2c2ccc(F)c(F)c2)CCN(CC2(C(=O)O)CCC2)CC1` [Example 65, 1-{[4-({[(1R,2S)-2-(3,4-difluorophenyl)cyclopropyl]amino}methyl)-4-(methoxymethyl)piperidin-1-yl]methyl}cyclobutanecarboxylic acid], the IC50 is under 100 nM.

Turning to `O=C(O)C1(CN2CCC(CN[C@@H]3C[C@H]3c3ccccc3)(Cc3ccc(F)cn3)CC2)CCC1` [Example 97, 1-{[4-[(5-fluoropyridin-2-yl)methyl]-4-({[(1R,2S)-2-phenylcyclopropyl]amino}methyl)piperidin-1-yl]methyl}cyclobutanecarboxylic acid], the half-inhibitory concentration (IC50) was under 100 nM.

With `COCC1(CN[C@@H]2C[C@H]2c2ccccc2)CCN(C(=O)N2CCC[C@H](O)C2)CC1` [Example 110, (3S)-1-{[4-(methoxymethyl)-4-({[(1R,2S)-2-phenylcyclopropyl]amino}methyl)piperidin-1-yl]carbonyl}piperidin-3-ol], the IC50 is under 100 nM.

On to `O=C(O)C1(CN2CCC(CN[C@@H]3C[C@H]3c3ccccc3)(COc3ccc(F)cn3)CC2)CC1` [Example 87, 1-{[4-{[(5-fluoropyridin-2-yl)oxy]methyl}-4-({[(1R,2S)-2-phenylcyclopropyl]amino}methyl)piperidin-1-yl]methyl}cyclopropanecarboxylic acid], for which the half-inhibitory concentration (IC50) was under 100 nM.

`COCC1(CN[C@@H]2C[C@H]2c2ccccc2)CCN(C(=O)c2ccn(CCC#N)n2)CC1` [Example 107, 3-(3-{[4-(methoxymethyl)-4-({[(1R,2S)-2-phenylcyclopropyl]amino}methyl)piperidin-1-yl]carbonyl}-1H-pyrazol-1-yl)propanenitrile] showed a half-inhibitory concentration (IC50) of under 100 nM.

`CCOCC1(CN[C@@H]2C[C@H]2c2ccccc2)CCN(CC2(C(=O)O)CCC2)CC1` [Example 71, 1-{[4-(ethoxymethyl)-4-({[(1R,2S)-2-phenylcyclopropyl]amino}methyl)piperidin-1-yl]methyl}cyclobutanecarboxylic acid] displayed an IC50 of under 100 nM.

Turning to `COCC1(CN[C@@H]2C[C@H]2c2ccccc2)CCN(C(=O)c2ccn(C)n2)CC1` [Example 42, (1R,2S)—N-({4-(methoxymethyl)-1-[(1-methyl-1H-pyrazol-3-yl)carbonyl]piperidin-4-yl}methyl)-2-phenylcyclopropanamine], the IC50 is under 100 nM.

For `N#Cc1cccc(C(=O)N2CC(CN[C@@H]3C[C@H]3c3ccccc3)C2)c1` (relative stereo) [Example 26, 3-[(3-{[(trans-2-Phenylcyclopropyl)amino]methyl}azetidin-1-yl)carbonyl]benzonitrile], the IC50 was under 100 nM.

In the case of `O=C(N1CC(CNC2CC2c2ccccc2)C1)N1CCC[C@@]2(CCN(C3CCC(O)CC3)C2=O)C1` (stereo in doubt) [Example 10, (5R)-2-(cis-4-Hydroxycyclohexyl)-7-[(3-{[(trans-2-phenylcyclopropyl)amino]methyl}azetidin-1-yl)carbonyl]-2,7-diazaspiro[4.5]decan-1-one], the half-maximal inhibitory concentration (IC50) was under 100 nM.

`O=C(N1CC(CNC2CC2c2ccccc2)C1)N1CCCC(Oc2ccccc2)C1` (stereo not drawn) [Example 14, N-({1-[(3-Phenoxypiperidin-1-yl)carbonyl]azetidin-3-yl}methyl)-trans-2-phenylcyclopropanamine] returned an IC50 of under 100 nM.

`O=C(O)C1(CN2CCC(CN[C@@H]3C[C@H]3c3ccccc3)(Cc3ccc(F)cc3)CC2)CCC1` [Example 32, 1-{[4-(4-fluorobenzyl)-4-({[(1R,2S)-2-phenylcyclopropyl]amino}methyl)piperidin-1-yl]methyl}cyclobutanecarboxylic acid]: the 50% inhibitory concentration (IC50) is under 100 nM.

Consider `O=C(O)C1(CN2CCC(CN[C@@H]3C[C@H]3c3ccccc3)(COc3ncccc3F)CC2)CC1` [Example 89, 1-{[4-{[(3-fluoropyridin-2-yl)oxy]methyl}-4-({[(1R,2S)-2-phenylcyclopropyl]amino}methyl)piperidin-1-yl]methyl}cyclopropanecarboxylic acid], for which the half-maximal inhibitory concentration (IC50) was under 100 nM.

On to `COCC1(CN[C@@H]2C[C@H]2c2ccccc2)CCN(CC2(C(=O)O)CC2)CC1` [Example 35, 1-{[4-(methoxymethyl)-4-({[(1R,2S)-2-phenylcyclopropyl]amino}methyl)piperidin-1-yl]methyl}cyclopropanecarboxylic acid], for which the IC50 is under 100 nM.
